Assay results from DBAASP.
Converted amounts (≈) assume the structure as drawn. “And” between values parts separate entries of the source, which are not always exact repeats. Identical values can stand only once. Values belong to the compound of their own block, whether it stands above or below them.

Tests used:
Assay in all cases: ≥ marks a high value that may be exact or a test limit, other limits are often not marked, values filed in µg/mL are converted to µM
[1] = tested on: Staphylococcus aureus
[2] = tested on: Staphylococcus aureus NCTC 10788
[3] = tested on: Klebsiella pneumoniae ATCC 43816
[4] = tested on: Candida albicans NCYC 1467
[5] = tested on: Pseudomonas aeruginosa ATCC 27853
[6] = tested on: Enterococcus faecalis NCTC 12697
[7] = tested on: Staphylococcus aureus ATCC 12493
[8] = tested on: Escherichia coli NCTC 10418
[9] = tested on: Acinetobacter baumannii KCTC 2508
[10] = tested on: Staphylococcus aureus ATCC 25923
[11] = tested on: Bacillus subtilis KCTC 2217
[12] = tested on: Enterococcus faecalis ATCC 19433
[13] = tested on: Bacillus subtilis ATCC 6633
[14] = tested on: Escherichia coli ATCC 25922
[15] = tested on: Klebsiella pneumoniae ATCC 13883
[16] = tested on: Proteus mirabilis CCUG 26767
[17] = tested on: Staphylococcus aureus ATCC 29213
[18] = tested on: Salmonella enterica subsp. enterica serovar Typhimurium LT2
[19] = tested on: Enterococcus faecium ATCC 19434
[20] = tested on: Bacillus megaterium Bm11
[21] = tested on: Staphylococcus aureus 710A
[22] = tested on: Escherichia coli ML-35
[23] = tested on: Salmonella enterica subsp. enterica serovar Typhimurium ATCC 14028
[24] = tested on: Klebsiella pneumoniae DSM 789
[25] = tested on: Acinetobacter baumannii AL1851-ΔLpxA
[26] = tested on: Citrobacter freundii DSM 30029
[27] = tested on: Acinetobacter baumannii ATCC 19606
[28] = tested on: Staphylococcus aureus DSM 11729
[29] = tested on: Pseudomonas aeruginosa DSM 1117
[30] = tested on: Shigella sonnei DSM 5570
[31] = tested on: Salmonella enterica DSM 17058
[32] = tested on: Acinetobacter baumannii Al1852-ΔLpxD
[33] = tested on: Staphylococcus epidermidis DSM 28319
[34] = tested on: Escherichia coli DSM 1103
[35] = tested on: Lacticaseibacillus rhamnosus 7469
[36] = tested on: Candida tropicalis CGMCC 2.1975
[37] = tested on: Staphylococcus epidermidis ATCC 12228
[38] = tested on: Pseudomonas aeruginosa PAO1
[39] = tested on: Escherichia coli 987P
[40] = tested on: Escherichia coli K88
[41] = tested on: Salmonella enterica subsp. enterica serovar Typhimurium C77-31
[42] = tested on: Lactiplantibacillus plantarum 8014
[43] = tested on: Escherichia coli UB1005
[44] = tested on: Escherichia coli 078
[45] = tested on: Candida parapsilosis CGMCC 2.3989
[46] = tested on: Candida albicans CGMCC 2.2086
[47] = tested on: Escherichia coli K99

SMILES: CC(C)C[C@H](NC(=O)[C@H](C)N)C(=O)N[C@@H](Cc1c[nH]c2ccccc12)C(=O)N[C@@H](CCCCN)C(=O)N[C@@H](CCCCN)C(=O)N[C@@H](CC(C)C)C(=O)N[C@@H](CC(C)C)C(=O)N[C@@H](CCCCN)C(=O)N[C@@H](CCCCN)C(=O)N[C@@H](C)C(N)=O [ALWKKLLKKA]
MIC [1]: > 256 µM | MIC [2]: ≥ 64 µM | MIC [3]: ≥ 256 µM | MIC [4]: ≥ 64 µM | MIC [5]: 32 µM (≈ 38.3 µg/mL) | MIC [6]: ≥ 256 µM | MIC [7]: ≥ 256 µM | MIC [8]: 8 µM (≈ 9.58 µg/mL)

SMILES: CC[C@H](C)[C@H](NC(=O)[C@H](CCCCN)NC(=O)[C@@H]1CCCN1C(=O)[C@H](CC(C)C)NC(=O)[C@@H](N)Cc1ccccc1)C(=O)N[C@@H](CC(C)C)C(=O)N[C@@H](CCCN=C(N)N)C(=O)N[C@@H](CCCCN)C(=O)N[C@H](C(=O)N[C@H](C(=O)N[C@@H](CCCN=C(N)N)C(=O)N[C@@H](C)C(=O)N[C@@H](CC(C)C)C(N)=O)C(C)C)[C@@H](C)CC [FLPKILRKIVRAL]
MIC [12]: 23.9 µM (≈ 37.5 µg/mL) | MIC [13]: ≥ 47.9 µM | MIC [14]: 23.9 µM (≈ 37.5 µg/mL) | MIC [15]: ≥ 47.9 µM | MIC [5]: > 383 µM | MIC [16]: ≥ 383 µM | MIC [17]: 191 µM (≈ 300 µg/mL) | MIC [18]: ≥ 47.9 µM | MIC [19]: 23.9 µM (≈ 37.5 µg/mL)

SMILES: CC[C@H](C)[C@H](NC(=O)[C@H](CC(=O)O)NC(=O)[C@H](Cc1c[nH]c2ccccc12)NC(=O)[C@H](CCCCN)NC(=O)[C@@H]1CCCN1C(=O)[C@H](CC(C)C)NC(=O)[C@H](CCSC)NC(=O)[C@H](Cc1ccc(O)cc1)NC(=O)[C@H](CC(C)C)NC(=O)[C@H](CC(N)=O)NC(=O)[C@@H](NC(=O)CNC(=O)[C@H](CCCCN)NC(=O)[C@H](Cc1ccccc1)NC(=O)[C@H](Cc1ccccc1)NC(=O)[C@H](CCCCN)NC(=O)[C@H](Cc1ccccc1)NC(=O)[C@H](Cc1ccccc1)NC(=O)[C@H](CCCCN)NC(=O)[C@H](Cc1ccccc1)NC(=O)[C@H](Cc1ccccc1)NC(=O)[C@@H](N)CCCCN)[C@@H](C)O)C(=O)N1CCC[C@H]1C(N)=O [KFFKFFKFFKGTNLYMLPKWDIP]
MIC [24]: 0.25 µM (≈ 0.736 µg/mL) | MIC [25]: 0.25 µM (≈ 0.736 µg/mL) | MIC [26]: 0.5 µM (≈ 1.47 µg/mL) | MIC [27]: 0.25 µM (≈ 0.736 µg/mL) | MIC [28]: ≥ 32 µM | MIC [29]: 1 µM (≈ 2.94 µg/mL) | MIC [30]: 0.25 µM (≈ 0.736 µg/mL) | MIC [31]: 2 µM (≈ 5.89 µg/mL) | MIC [32]: 0.25 µM (≈ 0.736 µg/mL) | MIC [33]: 1 µM (≈ 2.94 µg/mL) | MIC [34]: 0.5 µM (≈ 1.47 µg/mL)

SMILES: CC[C@H](C)[C@H](N)C(=O)N[C@@H](Cc1cnc[nH]1)C(=O)N[C@@H](Cc1cnc[nH]1)C(=O)N[C@H](C(=O)N[C@@H](Cc1cnc[nH]1)C(=O)N[C@@H](Cc1cnc[nH]1)C(=O)N[C@H](C(N)=O)[C@@H](C)CC)[C@@H](C)CC [IHHIHHI]
MIC [35]: ≥ 64 µM | MIC [36]: ≥ 64 µM | MIC [37]: > 64 µM | MIC [38]: > 64 µM | MIC [39]: ≥ 64 µM | MIC [14]: > 64 µM | MIC [40]: ≥ 64 µM | MIC [41]: ≥ 64 µM | MIC [42]: ≥ 64 µM | MIC [5]: > 64 µM | MIC [43]: ≥ 64 µM | MIC [44]: ≥ 64 µM | MIC [45]: ≥ 64 µM | MIC [17]: > 64 µM | MIC [10]: > 64 µM | MIC [46]: ≥ 64 µM | MIC [23]: > 64 µM | MIC [47]: ≥ 64 µM

Results, then the compound that gave them:

MIC [9]: 3.13 µM (≈ 6.27 µg/mL) | MIC [10]: 1.56 µM and > 0.78 µM | MIC [11]: 1.56 µM (≈ 3.13 µg/mL)
SMILES: CC(C)C[C@H](NC(=O)[C@H](CC(C)C)NC(=O)[C@H](CCCCN)NC(=O)[C@H](CCCCN)NC(=O)[C@H](CC(C)C)NC(=O)[C@H](CC(C)C)NC(=O)[C@@H]1CCCN1C(=O)[C@H](CCCCN)NC(=O)[C@H](CCCCN)NC(=O)[C@H](CC(C)C)NC(=O)[C@H](CC(C)C)NC(=O)[C@H](CCCCN)NC(=O)[C@H](CCCCN)NC(=O)[C@H](Cc1c[nH]c2ccccc12)NC(=O)[C@@H](N)CCCCN)C(=O)N[C@@H](CCCCN)C(N)=O [KWKKLLKKPLLKKLLK]

MIC [20]: 1 µM (≈ 2.1 µg/mL) | MIC [21]: 4 µM (≈ 8.39 µg/mL) | MIC [22]: 1 µM (≈ 2.1 µg/mL) | MIC [5]: 1 µM (≈ 2.1 µg/mL) | MIC [23]: 2 µM (≈ 4.2 µg/mL)
SMILES: CC[C@H](C)[C@H](NC(=O)[C@H](CCCCN)NC(=O)[C@H](CCCCN)NC(=O)[C@H](CC(C)C)NC(=O)[C@H](CC(C)C)NC(=O)CN)C(=O)N[C@@H](C)C(=O)N[C@@H](CCCCN)C(=O)N[C@@H](CCCCN)C(=O)N[C@@H](C)C(=O)N[C@@H](CCCCN)C(=O)N[C@@H](CCCCN)C(=O)N[C@@H](C)C(=O)N[C@@H](CC(C)C)C(=O)N[C@@H](CCCCN)C(=O)N[C@@H](CCCCN)C(=O)N[C@@H](CC(C)C)C(=O)NCC(=O)N[C@@H](Cc1ccc(O)cc1)C(N)=O [GLLKKIAKKAKKALKKLGY]
